According to PubChem BioAssay (NCI):
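These data come from cells grown in 96-well plates and exposed to compound for 48 hours at five concentrations. Definition used: TGI = concentration required for complete inhibition of growth.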

How the values were obtained:
Test in all cases: DTP human tumour cell line panel, 48 h
CCRF-CEM leukemia = tested on: CCRF-CEM leukemia
DU-145 prostate = tested on: DU-145 prostate
HCT-15 colon = tested on: HCT-15 colon
MALME-3M melanoma = tested on: MALME-3M melanoma
MDA-MB-231 breast = tested on: MDA-MB-231 breast
NCI-H23 lung = tested on: NCI-H23 lung
NCI-H460 lung = tested on: NCI-H460 lung
OVCAR-5 ovarian = tested on: OVCAR-5 ovarian
SF-295 CNS = tested on: SF-295 CNS
SK-MEL-28 melanoma = tested on: SK-MEL-28 melanoma
SW-620 colon = tested on: SW-620 colon
T-47D breast = tested on: T-47D breast
TK-10 renal = tested on: TK-10 renal
UACC-62 melanoma = tested on: UACC-62 melanoma
HOP-92 NSCLC = tested on: HOP-92 NSCLC

| SMILES | TGI (CCRF-CEM leukemia) [µM] | TGI (DU-145 prostate) [µM] | TGI (HCT-15 colon) [µM] | TGI (MALME-3M melanoma) [µM] | TGI (MDA-MB-231 breast) [µM] | TGI (NCI-H23 lung) [µM] | TGI (NCI-H460 lung) [µM] | TGI (OVCAR-5 ovarian) [µM] | TGI (SF-295 CNS) [µM] | TGI (SK-MEL-28 melanoma) [µM] | TGI (SW-620 colon) [µM] | TGI (T-47D breast) [µM] | TGI (TK-10 renal) [µM] | TGI (UACC-62 melanoma) [µM] | TGI (HOP-92 NSCLC) [µM] |
| --- | --- | --- | --- | --- | --- | --- | --- | --- | --- | --- | --- | --- | --- | --- | --- |
| O=C(NNC(=S)NC1CCCCC1)C12CC3CC(CC(C3)C1)C2 | > 100 | > 100 | > 100 | > 100 | > 100 | > 100 | > 100 | > 100 | > 100 | > 100 | > 100 | > 100 | > 100 | > 100 |  |
| CC(=O)OCC1OC(n2c3c(c(-c4ccc(Cl)cc4)c(C#N)c2=S)CCCC3)C(OC(C)=O)C(OC(C)=O)C1OC(C)=O (configuration not stated) | > 100 | > 100 | > 100 | > 100 | > 100 | > 100 | > 100 | > 100 | > 100 | 94.6 |  | > 100 | > 100 | 75.1 | 40.4 |
| Nc1nc(NCCCO)cc(=O)[nH]1 | > 100 | > 100 | > 100 | > 100 | > 100 | > 100 | > 100 | > 100 | > 100 | > 100 | > 100 | > 100 |  | > 100 | > 100 |
| COC(=O)CCNC(=O)OCc1ccccc1 | > 100 | > 100 | > 100 | > 100 | > 100 | > 100 | > 100 | > 100 | > 100 | > 100 | > 100 | > 100 | > 100 | > 100 |  |
| COC(=O)c1cc(NC(=O)Cc2c[nH]c3ccccc23)cn1C | > 100 | > 100 | > 100 | > 100 | > 100 | > 100 | > 100 | > 100 | > 100 | > 100 | > 100 | > 100 | > 100 | > 100 |  |
| Cc1cc2nc3ccccc3n2c2nc(N)ccc12 | > 100 | > 100 | 93.1 |  | > 100 | > 100 | 27.5 | > 100 | 71.5 |  | > 100 | > 100 | > 100 | > 100 | 69 |
| O=C1/C(=C/c2ccccc2[N+](=O)[O-])N=C(c2ccccc2)N1c1nc2ccccc2s1 | 0.681 | 47.6 | 56.8 |  | > 100 | 41.4 | > 100 | > 100 | > 100 | > 100 | > 100 | 76.6 | > 100 |  | 52.1 |
| CCCCc1ccc(Nc2nc(OC)c3ncn(C4CC(O)C(CO)O4)c3n2)cc1 (configuration not stated) | 34.9 | 37.3 | 34.3 | 42.7 | 38 | 35.3 | 32.9 | > 100 | 36.5 |  | 39.8 | 43.1 | 50.1 | 33.8 | 5.03 |
| C=CC1CN(C(=O)OCC)N(C(=O)OCC)C1CCc1ccccc1 (configuration not stated) | > 100 | > 100 | > 100 | > 100 | > 100 | > 100 | > 100 | > 100 | > 100 | > 100 |  | > 100 | > 100 | > 100 | > 100 |
| CSc1ccc(Nc2cc(=O)[nH]c(=O)[nH]2)cc1 | > 100 | > 100 | > 100 | > 100 | > 100 | > 100 | > 100 | > 100 | > 100 | > 100 | > 100 | > 100 |  | > 100 | > 100 |
| Cn1c2c(c3ccccc31)CCN1C(=O)CCC21 (configuration not stated) | > 10 | > 10 | > 10 | > 10 | > 10 | > 10 | > 10 | > 10 | > 10 | > 10 | > 10 | > 10 | > 10 |  | > 10 |
| N[C@@H]1CCN(c2c(F)cc3c(=O)c(C(=O)O)cn4c3c2Oc2cc3c(ccc5ccccc53)cc2-4)C1 | 0.234 | > 100 | > 100 | 23 | > 100 | > 100 | 7.01 | 97 | > 100 | > 93.2 | > 100 | 31.3 |  | 26.7 | 7.56 |
| COc1cccc(/C=C2\S/C(=N/Nc3nc(C)c(C)s3)NC2=O)c1O |  | > 100 | > 100 |  | > 100 | > 100 | > 100 | > 100 | > 100 | > 100 | > 100 | 73.8 | > 100 | > 100 | > 100 |
| CC1=CC[C@@]2(C)CC[C@](O)(C(C)C)C2C(OC(=O)c2ccccc2)C1 (some centres not stated) | 54.7 | 32.5 | 34.2 | 41.6 | 37.6 | 38.9 | 40.6 | 30.1 | 34.8 | 58.4 | 54.4 | 42.6 | 35.3 |  | 29.7 |
| O=C1O[C@H]2[C@H](OC(=O)c3cc(O)c(O)c(O)c3)[C@@H](OC(=O)c3cc(O)c(O)c4c3[C@@H]3C1=CC(=O)C(O)(O)C3(O)O4)[C@H](OC(=O)c1cc(O)c(O)c(O)c1)O[C@@H]2COC(=O)c1cc(O)c(O)c(O)c1 (some centres not stated) | > 100 | > 100 | > 100 | > 100 | > 100 | > 100 | > 100 | > 100 | > 100 | > 100 | > 100 | > 100 |  | > 100 | > 100 |
| Cc1ccc2c(=O)cc(-c3ccc(C)s3)[nH]c2n1 |  | > 55.4 | > 37.5 | 53 | > 100 |  | > 100 | > 100 | 2.79 |  |  | > 66.5 | > 100 | > 78.1 | > 100 |
| Fc1ccc2c3c([nH]c2c1)CCN(Cc1ccccc1)C3 | > 100 | 70.9 | 36.5 | 35 | 43.8 | 42.4 | 33.1 | 47.9 | 27.9 | 30.3 | 40 | 47.3 |  | 35.2 | 18.7 |
